What all share (experiment): DTP human tumour cell line panel, 48 h
Assay [1] deals with MALME-3M melanoma.
The test system of assay [2] is HT29 colon.
Assay [3] relates to K-562 leukemia.
In assay [4] the test system is SK-MEL-5 melanoma.
Assay [5] has as its system NCI-H226 lung.
Assay [6] has as its system HCT-15 colon.
The test system of assay [7] is OVCAR-4 ovarian.
Assay [8] deals with SF-295 CNS.
Assay [9] has as its system EKVX NSCLC.
The subject of assay [10] is HOP-92 NSCLC.

Experimental findings from PubChem BioAssay (NCI) are described below.

As a reminder, the TGI is the concentration giving total growth inhibition. Read a high TGI as less potent growth arrest.

Structures are written as SMILES.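 The compound was tested at five concentrations on cells cultured in 96-well plates, with a 48-hour exposure period. TGI: concentration producing complete growth inhibition.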

For `COC(=O)c1c(C#C[Si](C)(C)C)c(C#C[Si](C)(C)C)c(C#C[Si](C)(C)C)c(C#C[Si](C)(C)C)c1C(=O)OC`, the TGI in [1], in [2], in [3], in assay [4], in assay [5] and in assay [6] was more than 100 µM throughout. The TGI in [7], in [8], in [9] and in assay [10] was more than 100 µM each time.
Take `C/C(=C\c1ccccc1)C(=O)NCc1ccc(C(=O)NCCc2c[nH]c3ccccc23)cc1`: the TGI in assay [1], in assay [2], in assay [3], in assay [4], in assay [5] and in assay [6] was more than 100 µM throughout. The TGI in assay [7], in assay [8], in assay [9] and in assay [10] was more than 100 µM in each case.
For `O=C1OC(c2ccccc2)=N/C1=C/N1CCCC1C(=O)O` (stereo not given), the TGI in [1], in assay [2], in assay [3], in assay [4], in assay [5] and in [6] was more than 100 µM in each case. In addition, the TGI in assay [7], in assay [8], in [9] and in [10] was more than 100 µM in each case.
Take `CSC1NNC2(C(=O)N1)c1ccccc1-c1ccccc12` (stereo not given): the TGI in [1], in assay [2], in assay [3], in assay [4], in assay [5] and in [6] was more than 10 µM throughout. Besides, the TGI in [7], in assay [8], in [9] and in assay [10] was more than 10 µM throughout.
On to `OC(O)(C(F)(F)F)C(F)(F)F`, for which the TGI in [1], in assay [2], in assay [3], in assay [4], in [5] and in assay [6] was more than 100 µM throughout. The TGI in assay [7], in assay [8], in [9] and in assay [10] was more than 100 µM throughout.
As for `CCCCCCCCC[n+]1cccc(C2C(C(=O)OCC)=C(C)NC(C)=C2C(=O)OCC)c1`, the TGI in [1] was 4.67 µM; in assay [2], 11.7 µM; in assay [3] it was 43.7 µM; in [4], 3.8 µM; in assay [5], 28.7 µM; in assay [6], 32.7 µM. The TGI in assay [7] came out at 21.1 µM; in [8], 33.9 µM; in [9] it was 27.8 µM; in assay [10], 6.52 µM.
For `COC(=O)/C=C\C(C#N)(C#N)N=Cc1ccsc1`, the TGI in assay [1] worked out at 3.5 µM; in [2], 8.97 µM; in [3] it was 1.62 µM; in [4] it was 15.5 µM; in assay [5], 45.3 µM; in [6] it was 2.9 µM. For the same molecule, the TGI in assay [7] worked out at 32.5 µM; in [8] it was 27.5 µM; in assay [9] it was 12.5 µM; in assay [10] it was 3.7 µM.
For the molecule `CCOC(=O)C[n+]1ccc2c([nH]c3cc(OC)ccc32)c1C`, the TGI in assay [1], in [2], in assay [3], in assay [4], in assay [5] and in [6] was more than 100 µM in each case. Moreover, the TGI in assay [7], in assay [8], in assay [9] and in assay [10] was more than 100 µM in each case.
In the case of `O=S(=O)(O)c1ccc(Nc2ccnc3cc(Cl)ccc23)cc1`, the TGI in assay [1], in assay [2], in assay [3], in assay [4], in assay [5] and in assay [6] was more than 100 µM throughout. Further, the TGI in [7], in assay [8], in assay [9] and in assay [10] was more than 100 µM throughout.
Consider `CCOC(=O)CCC(C(=O)OCC)n1nnc2cc(Nc3c(C)[n+]([O-])c4ccc(Cl)cc4[n+]3[O-])ccc21` (stereo not given), for which the TGI in assay [1], in assay [2], in [3], in [4], in [5] and in [6] was more than 100 µM in each case. The TGI in [7] is more than 100 µM; in [8], more than 100 µM; in assay [9], 97.1 µM; in assay [10], more than 100 µM.
`CCCCCCc1cn([C@H]2C[C@H](O)[C@@H](CO)O2)c(=O)[nH]c1=O`: the TGI in [1], in assay [2], in assay [3], in assay [4], in assay [5] and in assay [6] was more than 100 µM throughout. For the same molecule, the TGI in [7] was more than 100 µM; in [8] it was more than 31.6 µM; in assay [9], more than 100 µM; in assay [10], more than 100 µM.
As to `CSc1ccccc1P(CCP(c1ccccc1SC)c1ccccc1SC)c1ccccc1SC`, the TGI is more than 100 µM in assay [1]; more than 100 µM in [2]; more than 100 µM in assay [3]; more than 70.1 µM in [4]; more than 45.2 µM in assay [5]; more than 100 µM in assay [6]. In addition, the TGI in assay [7] was more than 100 µM; in assay [8] it was more than 95.7 µM; in [9], 97.7 µM; in assay [10], more than 100 µM.
Turning to `C=C1C(=O)O[C@H]2C3C(=C(C)CC[C@@H]12)C(=O)[C@@H]1OC31C` (stereo not given in full), the TGI in [1] worked out at 4.66 µM; in assay [2], 4.28 µM; in assay [3] it was 5.35 µM; in assay [4], 6.11 µM; in assay [5], 20.5 µM; in assay [6] it was 3.16 µM. Further, the TGI came out at 3.39 µM in assay [7], 27.3 µM in assay [8], 33.2 µM in assay [9] and 10.7 µM in assay [10].
